In ChEMBL document CHEMBL3507680, “University of Dundee, Gates Library screen for HepG2 cell viability”:

Assay: Human HepG2 cell viability assay in 384 well format
Format: toxicity, cell-based
Set-up: dose 125 nL, time 70.5 hour; concentration not given beside the values
Settings: HepG2 cells, read-out: Inhibition

Structure (SMILES) | cytotoxicity at 70.5 h
O=C(Cn1c(=O)oc2ccccc21)NCC(O)c1ccc2c(c1)CCO2 (centres undefined) | -2.64%
CCc1nc(CN(C)CC(=O)NC(C)C)cs1 | -13.3%
CCn1nc2c(cc1=O)CN(CCOc1ccccc1C#N)CC2 | -8.44%
COc1ccccc1OCCNS(=O)(=O)N1CCOCC1 | -11.3%
COc1cccc2[nH]c(C(=O)N3CCNCC3C(N)=O)cc12 (centres undefined) | 10.8%
c1cnn(Cc2nnc3n2CCCN(CC2CCOCC2)C3)c1 | -2.91%
Cc1cc(C2CCCN(Cc3nc(Cc4ccccc4)no3)C2)n[nH]1 (centres undefined) | -10.9%
CN(C)CCN(Cc1ccco1)C(=O)Cc1cn2ccsc2n1 | -3.81%
Cc1nc(N2CCN(S(C)(=O)=O)CC2)cc(-n2cnc(C)c2C)n1 | -3.21%
Cc1nccc(CNc2cc(N3CCCC3CO)ncn2)n1 (centres undefined) | 2.68%
N#Cc1cccc(N2CC3(CCN(C(=O)c4cccnc4)C3)CC2=O)c1 (centres undefined) | -0.309%
CCNc1ncc(C(=O)N2Cc3nc(C)[nH]c(=O)c3C2)cn1 | 4.44%
CC(C)(CCS(C)(=O)=O)CNc1ccc2ccc(F)cc2n1 | -2.27%
O=C(NCCc1ccn(-c2ccccc2)n1)N1CCSCC1 | 22.7%
COc1ccc(C(C)(C)C(=O)NCc2n[nH]c(=O)[nH]2)cc1 | -1.62%
CC(C)C(=O)NCC(=O)N(C)C1CCCN(C2Cc3ccccc3C2)C1 (centres undefined) | -10.4%
Cc1ccc(S(=O)(=O)Nc2ccc(=O)n(C)c2)c(Br)c1 | 21.8%
CNc1cc(N2CCCC2CNCc2c[nH]nc2C(C)(C)C)ncn1 (centres undefined) | 0.0673%
O=C(CCN1CCCN(c2nccs2)CC1)Nc1ccccc1 | 28.8%
Cc1ccccc1CC(=O)N1CCc2c(ncnc2N2CCOCC2)C1 | 13.5%
CCN(C(=O)CN1CCC(c2ccccc2)C1)C1CC1 (centres undefined) | 0.241%

Structure (SMILES) | cytotoxicity at 70.5 h
CC(C)NC(=O)NC[C@H]1OC[C@@H](NCc2ccncc2)[C@@H]1O | -3.41%
Cc1cc(CN2CCc3c(CNc4ncccn4)cncc3C2)oc1C | -0.479%
CCCN(C)c1ncc2c(n1)N(C)CCN(CC1CC1)C2=O | -1.69%
COC(=O)CCC(=O)N1CCC2(CN(Cc3cccc(Cl)c3)C2)C1 | 6.9%
CCC(C)N(Cc1ccc(C)cc1)Cc1c[nH]c(C)n1 (centres undefined) | -5.02%
CCCN1CCN(Cc2cc(Cl)cc(Cl)c2)[C@H]2CS(=O)(=O)C[C@H]21 | 10.3%
CC(C)(C)C(=O)NCCC(=O)NC(C)(C)c1ccc2c(c1)OCO2 | -3.54%
Cc1ccc(C2CSCCN2C(=O)c2cccs2)o1 (centres undefined) | 19.9%
CC(C)OCCCNC(=O)c1c(-n2cnnn2)sc2c1CCCC2 | -25.4%
CCCc1cc(C(=O)N(C)Cc2cccc3cnccc23)n(C)n1 | -2.24%
c1ccc(Cc2nnc(CN3CCn4c(nnc4C4CC4)C3)o2)cc1 | -13.3%
COc1ccc(-c2noc(C(N)CCSC)n2)cc1OC (centres undefined) | -3.12%
COc1c(CNCc2ccccc2CO)c(C)nn1C | -5.09%
CNc1nc(C2CCN(C(=O)CC3CCCC3)C2)nc2c1CN(C)CC2 (centres undefined) | 8.17%
O=C(c1cncc(NCC2COc3ccccc3C2)n1)N1CCCCC1 (centres undefined) | 0.974%
Cc1nccn1-c1cc(CNC(=O)CCNC(=O)C2CCCC2)ccn1 | 2.73%
Cc1nc(CN2C[C@@H]3CN(C(=O)C4(C#N)CC4)C[C@@H]3C2=O)cs1 | -2.26%
Cc1ccc(NC2CCN(C(=O)c3ccncc3)CC2)nn1 | -12.4%
COc1cc(NC(=O)N(C)CCC2CC2)ncn1 | 19.9%
COCCNc1ccc(CC2CCNC2)cn1 (centres undefined) | -5.62%
CCOC(=O)N1CCN(C(=O)c2snnc2-c2ccccc2)CC1 | -9.63%

Structure (SMILES) | cytotoxicity at 70.5 h
CC(Cn1cccn1)NCc1csc(COc2ccc(F)cc2)n1 (centres undefined) | -1.54%
Cc1nc(NCc2ccccn2)c2c(n1)c(C)nn2C | 5.97%
Cc1cnn(CC2CN(Cc3ccc(-n4cccn4)cc3)CCO2)c1 (centres undefined) | -0.9%
COc1ncccc1CNC(=O)C1CC(=O)N(C)C1 (centres undefined) | 0.32%
CS(=O)(=O)c1nnc(NC(=O)CCc2ccc(Cl)s2)[nH]1 | -10.2%
N#Cc1ccc(CN2CCC(CCc3ccc(O)cc3)CC2)cc1 | 11%
Cc1cc(CNCC2Cn3nnc(C)c3CO2)oc1C (centres undefined) | -7.06%
CC(C)OCc1ncn2c1CN(CCO)CCC2 | -0.995%
OCCN1CCC(Cc2nccs2)CC1 | 1.19%
CCCc1nc(N(C)Cc2ccco2)c2c(n1)c(C)nn2CC | -3.19%
CN(C)S(=O)(=O)c1ccc(CN2CCCC2c2ccc[nH]2)o1 (centres undefined) | -5.46%
Cn1nccc1C(=O)N1CCC2(CC1)COC(COc1ccccn1)C2 (centres undefined) | -11.2%
CN(C)c1nccc(NCc2cc(-c3cccs3)n[nH]2)n1 | 4.36%
COCCNC(=O)c1cc2c(nc1O)CC(c1cccs1)CC2=O (centres undefined) | -12.9%
O=C(c1cc(F)cc2[nH]cnc12)N1CCCC1Cn1cccn1 (centres undefined) | -8.91%
Cc1nc(C)n(CC2CCCN(CC(=O)Nc3nncs3)C2)n1 (centres undefined) | -6.97%
Cc1ccc(CN2CCN(c3ncnc4[nH]cnc34)CC2CCO)cc1 (centres undefined) | 4.25%
CCn1ncnc1CN1CCC(CNC(=O)c2cccnc2O)C1 (centres undefined) | -4.94%
CC(C)N1CCC(N2CCN(C3CCC3)CC2CCO)CC1 (centres undefined) | -9.59%
COc1ncc(CN(C)C(C)c2cccnc2)cn1 (centres undefined) | 9.74%
COc1cc(C(=O)N2CCCC2c2noc(C(C)C)n2)on1 (centres undefined) | -2.66%

Structure (SMILES) | cytotoxicity at 70.5 h
Cc1cccc(NC(=O)C2CSCN2C(=O)c2cnccn2)c1C (centres undefined) | -7.92%
COCC(=O)N1CCC2(CC1)CN(c1ccccn1)CCO2 | -7.15%
CCc1nc(C2CCCN2Cc2ccn(C)c(=O)c2)no1 (centres undefined) | -2.34%
CCc1nc(Cn2cncc(Br)c2=O)no1 | -8.84%
CC1(C)COCCN1C(=O)CCc1nc(-c2ccc(Cl)cc2)no1 | -20%
CN(CC(=O)Nc1ccncc1)C1CCCN(c2cccnn2)C1 (centres undefined) | -3.61%
CN(C)C(=O)c1c[nH]nc1C1CCN(S(=O)(=O)c2ccccc2)CC1 | -1.91%
Cn1cc(-c2c(C#N)c(N)nc3c2CCc2[nH]ccc2-3)cn1 | 17.1%
CN(C)c1nccc(C2CCCCN2Cc2cnn3cccnc23)n1 (centres undefined) | -7.45%
CN1CCC2(CC1)Cc1ccccc1CN(C(=O)CN)C2 | 24.5%
O=C(c1nc2c(o1)CN(CC1CCC1)C2)N1CCCC1 | 10.5%
CN(Cc1ccc(OC(F)F)cc1)C(=O)CS(=O)(=O)c1ccc(Cl)cc1 | -9.26%
CCCN(CCC)C(=O)CN(C)Cc1cnc(C)s1 | 3.46%
Nc1nc(Cn2ccnc2-c2cc(CN3CCCC3)cs2)cs1 | 3.17%
CCc1nc(CNCCn2cc(C)cn2)no1 | -5.71%
CN1CCN(c2ccc(NC(=O)c3ccccn3)c(C(F)(F)F)c2)CC1 | -5.99%
Cc1nn(C)c(C)c1C1CCCN1c1ncnc2sccc12 (centres undefined) | 3.73%
O=C(O)c1cc(NS(=O)(=O)c2ccc(Cl)s2)ccc1N1CCOCC1 | -2.78%
CCCNC(=O)c1cc(Br)cc(S(=O)(=O)N2CCOCC2)c1F | -0.419%
CC(C)CS(=O)(=O)CC(=O)NC(C)c1nnc2n1CCC2 (centres undefined) | -2.61%
Cc1cc(N2CCC(Cc3cnccn3)C2)ncn1 (centres undefined) | -7.8%
